Data on 31 molecules can be found in patent US9694016B2 (Novartis AG, priority 2013, dated 2017).

Sequence of b-Raf (V600E) (P15056 whole entry V600E): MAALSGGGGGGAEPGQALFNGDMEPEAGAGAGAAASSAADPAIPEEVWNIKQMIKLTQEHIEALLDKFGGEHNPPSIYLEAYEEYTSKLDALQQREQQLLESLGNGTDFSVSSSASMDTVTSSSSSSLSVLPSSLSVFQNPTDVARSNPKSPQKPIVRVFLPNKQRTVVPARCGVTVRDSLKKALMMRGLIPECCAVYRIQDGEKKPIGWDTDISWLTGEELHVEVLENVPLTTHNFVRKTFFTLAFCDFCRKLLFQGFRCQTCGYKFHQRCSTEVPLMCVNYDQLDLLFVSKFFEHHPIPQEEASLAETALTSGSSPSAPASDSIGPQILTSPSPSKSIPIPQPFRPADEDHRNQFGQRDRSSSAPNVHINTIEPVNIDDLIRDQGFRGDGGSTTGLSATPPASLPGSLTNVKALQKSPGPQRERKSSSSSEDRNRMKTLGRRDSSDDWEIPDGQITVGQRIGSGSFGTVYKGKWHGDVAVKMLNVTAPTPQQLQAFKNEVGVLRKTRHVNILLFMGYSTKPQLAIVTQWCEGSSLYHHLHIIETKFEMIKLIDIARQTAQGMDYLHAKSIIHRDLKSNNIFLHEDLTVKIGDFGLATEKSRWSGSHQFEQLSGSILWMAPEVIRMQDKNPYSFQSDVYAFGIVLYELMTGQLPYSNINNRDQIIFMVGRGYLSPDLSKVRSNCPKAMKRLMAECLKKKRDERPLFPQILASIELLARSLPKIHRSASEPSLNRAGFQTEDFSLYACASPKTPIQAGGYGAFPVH

The test addresses b-Raf (V600E) (Homo sapiens (Human), UniProt P15056, V600E). The settings on record: read-out: b-Raf IC-50; AlphaScreen, 60 min pre-incubation, 3 hours reaction.
As to `Cc1ccc(NC(=O)c2ccnc(C(C)(C)C#N)c2)cc1-c1cc(N2CCOCC2)nc(NC(C)(C)CO)n1` [Example 751, 2-(2-cyanopropan-2-yl)-N-(3-(2-((1-hydroxy-2-methylpropan-2-yl)amino)-6-morpholinopyrimidin-4-yl)-4-methylphenyl)isonicotinamide], the IC50 came to 1.4 nM. The figure for `Cc1ncc(NC(=O)c2cccc(C(F)(F)F)c2)cc1-c1cc(N2CCOCC2)nc(NC(C)(C)CO)n1` [Example 752, N-(5-(2-((1-hydroxy-2-methylpropan-2-yl)amino)-6-morpholinopyrimidin-4-yl)-6-methylpyridin-3-yl)-3-(trifluoromethyl)benzamide] is 1.8 nM. With `Cc1ncc(NC(=O)c2ccnc(C(C)(C)C#N)c2)cc1-c1cc(N2CCOCC2)nc(NC2(CO)CCOCC2)n1` [Example 753, 2-(2-cyanopropan-2-yl)-N-(5-(2-((4-(hydroxymethyl)tetrahydro-2H-pyran-4-yl)amino)-6-morpholinopyrimidin-4-yl)-6-methylpyridin-3-yl)isonicotinamide] the figure was 30.9 nM; with `Cc1ccc(NC(=O)c2ccnc(C(C)(C)C#N)c2)cc1-c1cc(N2CCOCC2)nc(NC2(CO)CCOCC2)n1` [Example 754, 2-(2-cyanopropan-2-yl)-N-(3-(2-((4-(hydroxymethyl)tetrahydro-2H-pyran-4-yl)amino)-6-morpholinopyrimidin-4-yl)-4-methylphenyl)isonicotinamide], 3.4 nM; with `Cc1ccc(NC(=O)c2ccnc(C(C)(C)C#N)c2)cc1-c1cc(N2CCOCC2)nc(N(C)C)n1` [Example 755, 2-(2-cyanopropan-2-yl)-N-(3-(2-(dimethylamino)-6-morpholinopyrimidin-4-yl)-4-methylphenyl)isonicotinamide], 17.8 nM. The figure for `Cc1ccc(NC(=O)c2ccnc(C(C)(F)F)c2)cc1-c1cc(N2CCOCC2)nc(N(C)C)n1` [Example 756, 2-(1,1-difluoroethyl)-N-(3-(2-(dimethylamino)-6-morpholinopyrimidin-4-yl)-4-methylphenyl)isonicotinamide] is 4.2 nM; for `Cc1ccc(NC(=O)c2ccnc(C(C)C)c2)cc1-c1cc(N2CCOCC2)nc(N(C)C)n1` [Example 757, N-(3-(2-(dimethylamino)-6-morpholinopyrimidin-4-yl)-4-methylphenyl)-2-isopropylisonicotinamide] it is 1.4 nM; for `Cc1ccc(NC(=O)c2ccnc(C(F)(F)F)c2)cc1-c1cc(N2CCOCC2)nc(N(C)C)n1` [Example 758, N-(3-(2-(dimethylamino)-6-morpholinopyrimidin-4-yl)-4-methylphenyl)-2-(trifluoromethyl)isonicotinamide] it is 2.8 nM. As for `Cc1ccc(NC(=O)c2ccnc(S(C)(=O)=O)c2)cc1-c1cc(N2CCOCC2)nc(N(C)C)n1` [Example 759, N-(3-(2-(dimethylamino)-6-morpholinopyrimidin-4-yl)-4-methylphenyl)-2-(methylsulfonyl)isonicotinamide], the IC50 amounted to 11.5 nM. For `Cc1ncc(NC(=O)c2cccc(C(F)(F)F)c2)cc1-c1cc(N2CCOCC2)nc(N(C)C)n1` [Example 760, N-(5-(2-(dimethylamino)-6-morpholinopyrimidin-4-yl)-6-methylpyridin-3-yl)-3-(trifluoromethyl)benzamide], the IC50 is 11.3 nM. The figure for `CCOc1nc(-c2cc(NC(=O)c3ccnc(C(C)(F)F)c3)ccc2C)cc(N2CCOCC2)n1` [Example 761, 2-(1,1-difluoroethyl)-N-(3-(2-ethoxy-6-morpholinopyrimidin-4-yl)-4-methylphenyl)isonicotinamide] is 0.9 nM. With `CCOc1nc(-c2cc(NC(=O)c3ccnc(C(F)(F)F)c3)ccc2C)cc(N2CCOCC2)n1` [Example 762, N-(3-(2-ethoxy-6-morpholinopyrimidin-4-yl)-4-methylphenyl)-2-(trifluoromethyl)isonicotinamide] the figure was 0.7 nM.

Regarding `CCOc1nc(-c2cc(NC(=O)c3ccnc(C(C)(C)C#N)c3)ccc2C)cc(N2CCOCC2)n1` [Example 764, 2-(2-cyanopropan-2-yl)-N-(3-(2-ethoxy-6-morpholinopyrimidin-4-yl)-4-methylphenyl)isonicotinamide], the IC50 stood at 3.4 nM. With `Cc1ccc(NC(=O)c2cccc(C(F)(F)F)c2)cc1-c1cc(N2CCOCC2)nc(N2CC(O)C2)n1` [Example 765, N-(3-(2-(3-hydroxyazetidin-1-yl)-6-morpholinopyrimidin-4-yl)-4-methylphenyl)-3-(trifluoromethyl)benzamide] the figure was 1 nM; with `Cc1ccc(C(=O)Nc2cccc(C(F)(F)F)c2)cc1-c1cc(N2CCOCC2)nc(N2CC(O)C2)n1` [Example 766, 3-(2-(3-hydroxyazetidin-1-yl)-6-morpholinopyrimidin-4-yl)-4-methyl-N-(3-(trifluoromethyl)phenyl)benzamide], 1.8 nM. As to `Cc1ncc(NC(=O)c2ccnc(C(C)(C)C#N)c2)cc1-c1cc(N2CCOCC2)nc(N2CC(O)C2)n1` [Example 767, 2-(2-cyanopropan-2-yl)-N-(5-(2-(3-hydroxyazetidin-1-yl)-6-morpholinopyrimidin-4-yl)-6-methylpyridin-3-yl)isonicotinamide], the IC50 amounted to 47.4 nM. With `Cc1ncc(NC(=O)c2cccc(C(F)(F)F)c2)cc1-c1cc(N2CCOCC2)nc(N2CC(O)C2)n1` [Example 768, N-(5-(2-(3-hydroxyazetidin-1-yl)-6-morpholinopyrimidin-4-yl)-6-methylpyridin-3-yl)-3-(trifluoromethyl)benzamide] the figure was 11.1 nM; with `Cc1ccc(NC(=O)c2ccnc(C(C)(C)C#N)c2)cc1-c1cc(N2CCOCC2)nc(N2CC(O)C2)n1` [Example 769], 10.2 nM.

With `Cc1ncc(NC(=O)c2cccc(C(F)F)c2)cc1-c1cc(N2CCOCC2)nc(N2CC(O)C2)n1` [Example 770, 3-(difluoromethyl)-N-(5-(2-(3-hydroxyazetidin-1-yl)-6-morpholinopyrimidin-4-yl)-6-methylpyridin-3-yl)benzamide], the IC50 stood at 5.3 nM. The figure for `Cc1ccc(NC(=O)c2ccnc(C(C)C)c2)cc1-c1cc(N2CCOCC2)nc(N2CC(O)C2)n1` [Example 771, N-(3-(2-(3-hydroxyazetidin-1-yl)-6-morpholinopyrimidin-4-yl)-4-methylphenyl)-2-isopropylisonicotinamide] is 2.5 nM; for `Cc1ccc(NC(=O)c2ccnc(C(C)(F)F)c2)cc1-c1cc(N2CCOCC2)nc(N2CC(O)C2)n1` [Example 772, 2-(1,1-difluoroethyl)-N-(3-(2-(3-hydroxyazetidin-1-yl)-6-morpholinopyrimidin-4-yl)-4-methylphenyl)isonicotinamide] it is 1.9 nM. The figure for `Cc1ccc(NC(=O)c2ccnc(C(F)(F)F)c2)cc1-c1cc(N2CCOCC2)nc(N2CC(O)C2)n1` [Example 773, N-(3-(2-(3-hydroxyazetidin-1-yl)-6-morpholinopyrimidin-4-yl)-4-methylphenyl)-2-(trifluoromethyl)isonicotinamide] is 1.7 nM; for `Cc1ncc(NC(=O)c2cccc(C(F)(F)F)c2)cc1-c1cc(N2CCOCC2)nc(N2CCNCC2)n1` [Example 775, N-(6-methyl-5-(6-morpholino-2-(piperazin-1-yl)pyrimidin-4-yl)pyridin-3-yl)-3-(trifluoromethyl)benzamide] it is 20 nM. With `Cc1ncc(NC(=O)c2cccc(C(F)(F)F)c2)cc1-c1cc(N2CCOCC2)nc(OC2CNC2)n1` [Example 776, N-(5-(2-(azetidin-3-yloxy)-6-morpholinopyrimidin-4-yl)-6-methylpyridin-3-yl)-3-(trifluoromethyl)benzamide] the figure was 25000 nM. As for `Cc1ccc(NC(=O)c2ccnc(C(C)C)c2)cc1-c1cc(N2CCOCC2)nc(OC2CNC2)n1` [Example 778, N-(3-(2-(azetidin-3-yloxy)-6-morpholinopyrimidin-4-yl)-4-methylphenyl)-2-isopropylisonicotinamide], the IC50 amounted to 2.3 nM. The figure for `Cc1ccc(NC(=O)c2ccnc(C(C)(F)F)c2)cc1-c1cc(N2CCOCC2)nc(OC2CNC2)n1` [Example 779, N-(3-(2-(azetidin-3-yloxy)-6-morpholinopyrimidin-4-yl)-4-methylphenyl)-2-(1,1-difluoroethyl)isonicotinamide] is 2.2 nM; for `Cc1ccc(NC(=O)c2ccnc(C(F)(F)F)c2)cc1-c1cc(N2CCOCC2)nc(OC2CNC2)n1` [Example 780, N-(3-(2-(azetidin-3-yloxy)-6-morpholinopyrimidin-4-yl)-4-methylphenyl)-2-(trifluoromethyl)isonicotinamide] it is 2.1 nM. With `Cc1ncc(NC(=O)c2cccc(C(F)(F)F)c2)cc1-c1cc(N2CCOCC2)nc(N2C(=O)OC[C@@H]2C)n1` [Example 781, (S)—N-(6-methyl-5-(2-(4-methyl-2-oxooxazolidin-3-yl)-6-morpholinopyrimidin-4-yl)pyridin-3-yl)-3-(trifluoromethyl)benzamide] the figure was 10.8 nM; with `Cc1ccc(NC(=O)c2ccnc(C(C)(C)C#N)c2)cc1-c1cc(N2CCOCC2)nc(N2C(=O)OC[C@@H]2C)n1` [Example 782, (S)-2-(2-cyanopropan-2-yl)-N-(4-methyl-3-(2-(4-methyl-2-oxooxazolidin-3-yl)-6-morpholinopyrimidin-4-yl)phenyl)isonicotinamide], 22.3 nM. Consider `Cc1ccc(NC(=O)c2cccc(C(F)(F)F)c2)cc1-c1cc(N2CCOCC2)nc(N2C(=O)OC[C@@H]2C)n1` [Example 783, (S)—N-(4-methyl-3-(2-(4-methyl-2-oxooxazolidin-3-yl)-6-morpholinopyrimidin-4-yl)phenyl)-3-(trifluoromethyl)benzamide], for which the IC50 was 6.3 nM. The figure for `Cc1ncc(NC(=O)c2ccnc(C(C)(C)C#N)c2)cc1-c1cc(N2CCOCC2)nc(N2C(=O)OC[C@@H]2C)n1` [Example 784, (S)-2-(2-cyanopropan-2-yl)-N-(6-methyl-5-(2-(4-methyl-2-oxooxazolidin-3-yl)-6-morpholinopyrimidin-4-yl)pyridin-3-yl)isonicotinamide] is 200 nM.
